Source: patent publication US20100170777A1, “AGENT FOR DEGRADING A NUCLEIC ACID AND METHOD OF DEGRADING A NUCLEIC ACID” (Morinaga Milk Industry Co., Ltd., priority 2006, published 2010)

Assays:
[1] = test system: rRNA (16SrRNA and 23SrRNA); assay: Influence of EMA plus visible light on isolated E. coli nucleic acid in vitro (agarose gel electrophoresis), rRNA bands; type: biochemical; conditions: visible light 500 W halogen bulb 20 min
Description: (§1) b 1 ml living bacterial suspension of 1.0×10^6 CFU/ml of E. coli/DH5α strain was subjected to centrifugation under a cool condition. After removal of the supernatant, the resulting pellet was added with 0.5 ml of 10 mM Tris-HCl buffer solution (pH 8.0) and further added with 10 μl of 1250U/ml protease K solution and 200 μl of 10% SDS solution, followed by overnight bacteriolysis at 50° C.
(§2) Subsequently, each of the treated solution was divided into two equal volumes and dispensed into two 2 ml micro tubes, respectively. Each of them was added with 0.5 ml of saturated phenol solution, then gently mixed for 15 minutes, and then added with 0.5 ml of chloroform, followed by gently mixing for 5 minutes. After that, the mixture was centrifuged at 6,000×g at 4° C. for 10 minutes. An aqueous phase, an upper layer, was transferred into an another 2 ml microtube and then added with 70 μl of 3M sodium acetate (pH 5.2) and 1.21 ml of 99.5% cold ethanol, followed by gentle mixing. […] The concentration of the purified nucleic acid solution was determined based on the absorbance at UV260 nm (50 μg/ml of the nucleic acid was defined as OD=1, cell length=1 cm:OD260).
(§3) The nucleic acid solution thus prepared was adjusted to 175 ng/μl with sterile water and 4 μl aliquot of the nucleic acid solution was then added to each of microtubes. […] The resulting image was recorded on the Polaroid film 667. […]

E. coli/DH5α strain = assay: Antibacterial effect of EMA on living bacteria (number of living bacterial cells); type: cell-based; conditions: 1.0×10^6 CFU/ml E. coli/DH5α, visible light 500 W halogen bulb 20 min
Description: Ethidium monoazide (EMA) was dissolved in sterile water to prepare 1000 μg/ml EMA solution. The solution was filtrated through a 0.2 μm sterile filter (Minisart-plus; manufactured by Sartorius AG). The EMA solution was added so that the final concentration of EMA become 0 (no addition), 0.01, 0.1, 1, 10, and 100 μg/ml, respectively with respect to 1 ml of 1.0×10^6CFU/ml living bacterial suspension of E. coli/DH5α strain, followed by left standing at 4° C. for 1 hour under light interception.
Subsequently, at a distant of 20 cm from the above living bacterial suspension on ice, the sample was irradiated for 20 minutes with visible light from a 500 W halogen bulb (FLOOD PRF 100V 500 W; Iwasaki Electric Co., Ltd., Tokyo). The sample was subjected to centrifugation at 15,000×g at 4° C. for 10 minutes and the supernatant was then removed to eliminate a product generated by the reaction of water with the visible light irradiation product of EMA (hydroxyamino ethidium), which could not covalently bind to nucleic acid. The pellet was added with an equal amount of physiological saline solution and then serially diluted, followed by 24 hour incubation at 37° C. using an L-plate agar culture medium to determine the number of living bacterial cells.

[2] = test system: rRNA (16SrRNA and 23SrRNA) of living bacteria (E. coli); assay: Influence of EMA plus visible light on nucleic acid inside living E. coli (in vivo; agarose gel electrophoresis), rRNA bands; type: cell-based; conditions: EMA 10 μg/ml; living E. coli/DH5α suspension; visible light 500 W halogen bulb 20 min
Description: (§4) EMA was dissolved in sterile water to prepare 1000 μg/ml EMA solution. The solution was filtrated for sterilization through a 0.2 μm filter (Minisart-plus; manufactured by Sartorius AG). The EMA solution was added so that the final concentration of EMA become 0 (no addition), 0.01, 0.1, 1, 10, and 100 μg/ml with respect to 1 ml of 1.0×10^6CFU/ml living bacterial suspension of E. coli/DH5α strain, followed by leaving standing at 4° C. for 1 hour.
(§5) Subsequently, at a distance of 20 cm from the above living bacterial suspension on ice, the sample was irradiated for 20 minutes with visible light from a 500 W halogen bulb (FLOOD PRF 100V 500 W; Iwasaki Electric Co., Ltd., Tokyo). […]
(§6) Each of the treated solution was divided into two equal volumes and dispensed into two 2 ml micro tubes, respectively. […] The concentration of the purified nucleic acid solution was determined based on the absorbance at UV260 nm (50 μg/ml of the nucleic acid was defined as OD=1, cell length=1 cm:OD260). The purity of the purified nucliec acid was calculated by dividing OD260 with OD280.
(§7) Each of the nucleic acid solutions was prepared at 175 ng/μl and 4 μl of each was then electrophoresed on 0.7% agarose gel. λ-EcoT14 I digest (manufactured by Takara Bio Inc.) was used as a molecular weight marker. […] The resulting image was recorded on the Polaroid film 667. […]

E. coli chromosomal DNA [3] = assay: Electron microscopy of E. coli chromosomal DNA treated with EMA and visible light in vitro; type: biochemical; conditions: visible light 500 W halogen bulb 20 min
Description: Nucleic acid was extracted in a manner similar to Example 1 as described above. The nucleic acid was then dissolved in 9 ml of sterile water. A nucleic acid solution thus prepared was gently loaded on the top of 32 ml sucrose density gradient (16 ml of 10% sucrose solution and 16 ml of 40% sucrose solution were used) and then subjected to ultracentrifugation at 26,000 rpm at 20° C. for 18 hours with a swing rotor (manufactured by Hitachi Koki Co., Ltd.: RPS-27-2). After the centrifugation, a small hole was opened in the bottom of the sucrose density gradient solution and then fractionated every 1 ml.
After that, for each fraction, 3M sodiumacetate solution (pH 5.2) was added so as to be 10% (vol/vol). Then, 2-fold volume of 99.5% ethanol was added. Subsequently, the fraction was subjected to centrifugation at 15,000×g at 4° C. for 10 minutes to recover the pellet. Then, the pellet was washed with 70% ethanol and then dissolved in 100 μl of sterile water.
Among the samples obtained from the respective fraction solutions, a sample only containing a long chromosomal DNA with 48 kbp in agarose electrophoresis was further diluted with sterile water so as to be a DNA concentration of 175 ng/μl. Then 4 μl of each aqueous EMA solution (0, 0.02, 2, and 20 μg/ml) was added to 4 μl of the DNA solution and then left standing at 4° C. for 1 hour under light interception. […]

E. coli chromosomal DNA [4] = assay: Influence of EMA plus visible light on isolated E. coli nucleic acid in vitro (agarose gel electrophoresis), chromosomal DNA band; type: biochemical; conditions: visible light 500 W halogen bulb 20 min
Description: as §1, §2, §3

[5] = test system: chromosomal DNA in the nucleic acid existing inside of the living bacteria (E. coli); assay: Influence of EMA plus visible light on nucleic acid inside living E. coli (in vivo; agarose gel electrophoresis), chromosomal DNA band; type: cell-based; conditions: living E. coli/DH5α suspension, visible light 500 W halogen bulb 20 min
Description: as §4, §5, §6, §7

CC[n+]1c(-c2ccccc2)c2cc(N=[N+]=[N-])ccc2c2ccc(N)cc21.[Cl-] [EMA, 3-amino-8-azido-5-ethyl-6-phenyl-phenanthridinium chloride]
band intensity of rRNA (16SrRNA and 23SrRNA) ([1]; EMA 1 μg/ml): decreased
band intensity of rRNA (16SrRNA and 23SrRNA) ([1]; EMA 10 μg/ml or more): disappeared
decrease in number of living bacterial cells in comparison with the original number (E. coli/DH5α strain; EMA 10 μg/ml): ~10^2 CFU/ml
decrease in number of living bacterial cells in comparison with the original number (E. coli/DH5α strain; EMA 100 μg/ml): ~10^5 CFU/ml
band intensity of rRNA (16SrRNA and 23SrRNA) [2]: decreased
effect of cleaving the chromosomal DNA (electron microscopy) (E. coli chromosomal DNA [3]; EMA 0 to 0.01 μg/ml): not observed
effect of cleaving the chromosomal DNA (electron microscopy) (E. coli chromosomal DNA [3]; EMA 1 μg/ml or more): caused the cleaving phenomenon of chromosomal DNA
intensity of the band originated from the chromosomal DNA of approximately 19,329 bps (E. coli chromosomal DNA [4]; EMA 100 ng/ml to 1 μg/ml): gradually decreased
intensity of the band originated from the chromosomal DNA of approximately 19,329 bps (E. coli chromosomal DNA [4]; EMA 10 μg/ml): significantly disappeared
intensity of the band originated from the chromosomal DNA of approximately 19,329 bps ([5]; EMA 10 μg/ml): gradually decreased
intensity of the band originated from the chromosomal DNA of approximately 19,329 bps ([5]; EMA 100 μg/ml): significantly disappeared
